Data reported in ChEMBL document CHEMBL3044810, “Synthesis and herbicidal activity of alkyl 1-(3-trifluoromethylphenoxyacetoxy)-1-substituted methylphosphonates” (J Pestic Sci, 2007).

Columns and labels:
Cucumis sativus = experiment: Pre-emergence growth inhibition of Cucumis sativus (cucumber) under green house conditions; format: functional, organism-based
Digitaria sanguinalis [1] = experiment: Pre-emergence herbicidal activity against Digitaria sanguinalis (hairy crabgrass) assessed as growth inhibition at 1.5 ai kg/ha under green house conditions; format: functional
Brassica napus [2] = experiment: Pre-emergence herbicidal activity against Brassica napus (oilseed rape) assessed as growth inhibition at 1.5 ai kg/ha under green house conditions; format: functional
Medicago sativa [3] = experiment: Post-emergence herbicidal activity against Medicago sativa (alfalfa) assessed as growth inhibition at 1.5 ai kg/ha under green house conditions; format: functional
Medicago sativa [4] = experiment: Pre-emergence herbicidal activity against Medicago sativa (alfalfa) assessed as growth inhibition at 1.5 ai kg/ha under green house conditions; format: functional
Amaranthus retroflexus [5] = experiment: Post-emergence herbicidal activity against Amaranthus retroflexus assessed as growth inhibition at 1.5 ai kg/ha under green house conditions; format: functional
Echinochloa crus-galli [6] = experiment: Post-emergence herbicidal activity against Echinochloa crus-galli (barnyard grass) assessed as growth inhibition at 1.5 ai kg/ha under green house conditions; format: functional
Echinochloa crus-galli [7] = experiment: Pre-emergence herbicidal activity against Echinochloa crus-galli (barnyard grass) assessed as growth inhibition at 1.5 ai kg/ha under green house conditions; format: functional
Amaranthus retroflexus [8] = experiment: Pre-emergence herbicidal activity against Amaranthus retroflexus assessed as growth inhibition at 1.5 ai kg/ha under green house conditions; format: functional
Brassica napus [9] = experiment: Post-emergence herbicidal activity against Brassica napus (oilseed rape) assessed as growth inhibition at 1.5 ai kg/ha under green house conditions; format: functional
Digitaria sanguinalis [10] = experiment: Post-emergence herbicidal activity against Digitaria sanguinalis (hairy crabgrass) assessed as growth inhibition at 1.5 ai kg/ha under green house conditions; format: functional

Compound | IC50 (Cucumis sativus) [µg/g] | growth inhibition (GI) (Digitaria sanguinalis [1]) [%] | growth inhibition (GI) (Brassica napus [2]) [%] | growth inhibition (GI) (Medicago sativa [3]) [%] | growth inhibition (GI) (Medicago sativa [4]) [%] | growth inhibition (GI) (Amaranthus retroflexus [5]) [%] | growth inhibition (GI) (Echinochloa crus-galli [6]) [%] | growth inhibition (GI) (Echinochloa crus-galli [7]) [%] | growth inhibition (GI) (Amaranthus retroflexus [8]) [%] | growth inhibition (GI) (Brassica napus [9]) [%] | growth inhibition (GI) (Digitaria sanguinalis [10]) [%]
COP(=O)(OC)C(OC(=O)COc1cccc(C(F)(F)F)c1)c1ccc(C)cc1 (configuration not stated) | 4.04 | 95.7 | 50.4 | 91.2 | 100 | 96.2 | 23.6 | 80.4 | 100 | 14.2 | 0
COP(=O)(OC)C(OC(=O)COc1cccc(C(F)(F)F)c1)c1ccccc1Cl (configuration not stated) | 3.57 | 97.9 | 61 | 100 | 100 | 100 | 23.5 | 54 | 100 | 54.6 | 36
COP(=O)(OC)C(OC(=O)COc1cccc(C(F)(F)F)c1)c1ccc(Cl)cc1 (configuration not stated) | 3.16 | 91.5 | 38.6 | 100 | 89.8 | 88.5 | 0 | 84.2 | 100 | 57.4 | 12
CCOP(=O)(OCC)C(OC(=O)COc1cccc(C(F)(F)F)c1)c1ccc2c(c1)OCO2 (configuration not stated) | 5.91 | 100 | 12.6 | 100 | 93.2 | 88.5 | 0 | 80.4 | 95.5 | 61.7 | 24
CCOP(=O)(OCC)C(OC(=O)COc1cccc(C(F)(F)F)c1)c1ccc(Cl)cc1 (configuration not stated) | 4.32 | 95.7 | 13.8 | 100 | 100 | 86.3 | 5.6 | 76.5 | 86.4 | 45.4 | 16
COP(=O)(OC)C(OC(=O)COc1cccc(C(F)(F)F)c1)c1ccc2c(c1)OCO2 (configuration not stated) | 4.87 | 93.2 | 64.6 | 100 | 100 | 88.5 | 15.3 | 70.6 | 100 | 43.3 | 12
O=C(O)COc1ccc(Cl)cc1Cl [2,4-DICHLOROPHENOXYACETIC ACID] | 0.1379 | 88.7 | 100 | 95.5 | 90 | 100 | 54.5 | 80 | 95.5 | 89.13 | 59.6
